From ChEMBL document CHEMBL1201862, “PubChem BioAssay data set” (2004)
Blank lines part the entries; values can stand above or below the molecule they belong to. The source made the active and inactive calls.

Experiments:
[1] = biological target: Peroxisome proliferator-activated receptor gamma/Nuclear receptor corepressor 2 (Homo sapiens, UniProt P37231+Q9Y618); assay type: functional
[2] = biological target: Photoreceptor-specific nuclear receptor (Homo sapiens, UniProt Q9Y5X4); assay type: functional;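 further: potency for compounds that break the NR2E3 corepressor complex and count as activators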
[3] = biological target: Lysosomal acid glucosylceramidase (Homo sapiens, UniProt P04062); assay: Dose response cell-based high throughput screening assay to identify enhancers of beta-glucosidase activity. [Related pubchem assays: 784 ]; assay type: functional
[4] = biological target: T1, Neuropeptide Y receptor type 1 (Homo sapiens, UniProt P25929); assay: Fluorescence-based counterscreen for agonists of NPY-Y2: cell-based high-throughput dose response assay for agonists of NPY-Y1.; assay type: functional
T1 sequence (P25929 whole entry): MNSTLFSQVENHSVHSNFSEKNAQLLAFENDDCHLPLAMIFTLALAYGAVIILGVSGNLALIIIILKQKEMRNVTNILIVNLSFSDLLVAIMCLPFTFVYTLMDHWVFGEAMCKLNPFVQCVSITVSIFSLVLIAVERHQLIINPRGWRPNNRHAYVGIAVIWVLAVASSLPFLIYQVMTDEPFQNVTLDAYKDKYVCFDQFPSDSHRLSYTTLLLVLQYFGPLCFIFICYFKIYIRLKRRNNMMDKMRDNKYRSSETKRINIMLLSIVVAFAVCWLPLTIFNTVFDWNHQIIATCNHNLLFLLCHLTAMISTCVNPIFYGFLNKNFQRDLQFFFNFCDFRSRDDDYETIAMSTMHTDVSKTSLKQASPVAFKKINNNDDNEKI

[5] = biological target: T2, Neuropeptide Y receptor type 2 (Homo sapiens, UniProt P49146); assay: Fluorescence-based cell-based high-throughput dose response assay for agonists of NPY-Y2. [Related pubchem assays: 1703 (Screening assay (CNGC inhibitors).), 1359 (Screening assay (NPY-Y2 potentiators or agonists).), 1304 (Screening assay (NPY-Y1 potentiators or agonists).), 1710 (Screening assay (NPY-Y2 agonists).), 1791 (Summary AID.)]; assay type: functional
T2 sequence (P49146 whole entry): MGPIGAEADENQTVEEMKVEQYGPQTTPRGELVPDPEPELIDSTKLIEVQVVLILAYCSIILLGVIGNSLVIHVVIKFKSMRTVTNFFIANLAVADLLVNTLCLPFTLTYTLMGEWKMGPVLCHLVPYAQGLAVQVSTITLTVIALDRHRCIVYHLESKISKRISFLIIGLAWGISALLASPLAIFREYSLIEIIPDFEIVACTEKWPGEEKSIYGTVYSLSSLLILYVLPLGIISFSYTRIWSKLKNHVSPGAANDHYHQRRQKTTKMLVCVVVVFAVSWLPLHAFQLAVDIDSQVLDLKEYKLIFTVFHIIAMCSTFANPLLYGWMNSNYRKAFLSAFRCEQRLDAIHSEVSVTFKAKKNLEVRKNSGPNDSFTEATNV

HEK293 = assay: Fluorescence-based counterscreen for potentiators or agonists of NPY-Y2: cell-based high-throughput dose response assay to identify inhibitors of cyclic nucleotide gated ion channel (CNGC) activity. In this assay, the parental HEK293 cell line transfected with a cyclic-nucleotide gated ion channel (CNGC)-based cAMP sensor is used to measure inhibition of isoproterenol-induced CNGC activity by test compound.; assay type: functional; conditions: Homo sapiens;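 further: stimulus is 1 µM isoproterenol at EC100 plus PDE inhibitor Ro 20-1724 at 25 µM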
Cytochrome P450 2C9 = Cytochrome P450 2C9 (Homo sapiens, UniProt P11712); conditions: Potency
Chain of Cytochrome P450 2C9 (P11712 whole entry): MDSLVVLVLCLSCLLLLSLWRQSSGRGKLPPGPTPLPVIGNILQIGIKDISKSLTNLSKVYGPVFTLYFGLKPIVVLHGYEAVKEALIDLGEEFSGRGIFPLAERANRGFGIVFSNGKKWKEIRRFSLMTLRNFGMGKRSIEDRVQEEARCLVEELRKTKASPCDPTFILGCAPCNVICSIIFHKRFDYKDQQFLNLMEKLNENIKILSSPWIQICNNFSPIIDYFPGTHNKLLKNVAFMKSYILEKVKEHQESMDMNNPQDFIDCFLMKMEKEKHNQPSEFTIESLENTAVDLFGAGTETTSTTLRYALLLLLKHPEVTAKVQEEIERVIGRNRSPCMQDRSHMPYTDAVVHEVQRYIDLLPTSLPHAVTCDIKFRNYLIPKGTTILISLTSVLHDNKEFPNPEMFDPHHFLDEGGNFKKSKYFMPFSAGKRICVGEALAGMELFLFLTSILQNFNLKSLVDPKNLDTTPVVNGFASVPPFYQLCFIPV

Chain of Peroxisome proliferator-activated receptor gamma/Nuclear receptor corepressor 2 (P37231 whole entry): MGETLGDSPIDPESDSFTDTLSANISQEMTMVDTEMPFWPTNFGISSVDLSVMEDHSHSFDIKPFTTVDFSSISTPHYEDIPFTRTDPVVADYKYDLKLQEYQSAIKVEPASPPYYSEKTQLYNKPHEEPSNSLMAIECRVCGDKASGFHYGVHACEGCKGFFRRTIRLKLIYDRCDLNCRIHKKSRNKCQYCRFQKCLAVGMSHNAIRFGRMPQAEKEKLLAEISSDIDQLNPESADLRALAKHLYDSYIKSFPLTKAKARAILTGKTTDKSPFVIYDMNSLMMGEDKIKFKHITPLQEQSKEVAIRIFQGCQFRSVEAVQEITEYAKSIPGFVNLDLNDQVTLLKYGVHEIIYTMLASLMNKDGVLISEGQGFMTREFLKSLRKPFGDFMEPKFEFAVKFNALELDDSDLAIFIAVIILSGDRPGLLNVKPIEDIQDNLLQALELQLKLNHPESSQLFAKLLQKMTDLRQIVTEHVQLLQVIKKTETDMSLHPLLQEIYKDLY
Chain of Peroxisome proliferator-activated receptor gamma/Nuclear receptor corepressor 2 (Q9Y618 whole entry): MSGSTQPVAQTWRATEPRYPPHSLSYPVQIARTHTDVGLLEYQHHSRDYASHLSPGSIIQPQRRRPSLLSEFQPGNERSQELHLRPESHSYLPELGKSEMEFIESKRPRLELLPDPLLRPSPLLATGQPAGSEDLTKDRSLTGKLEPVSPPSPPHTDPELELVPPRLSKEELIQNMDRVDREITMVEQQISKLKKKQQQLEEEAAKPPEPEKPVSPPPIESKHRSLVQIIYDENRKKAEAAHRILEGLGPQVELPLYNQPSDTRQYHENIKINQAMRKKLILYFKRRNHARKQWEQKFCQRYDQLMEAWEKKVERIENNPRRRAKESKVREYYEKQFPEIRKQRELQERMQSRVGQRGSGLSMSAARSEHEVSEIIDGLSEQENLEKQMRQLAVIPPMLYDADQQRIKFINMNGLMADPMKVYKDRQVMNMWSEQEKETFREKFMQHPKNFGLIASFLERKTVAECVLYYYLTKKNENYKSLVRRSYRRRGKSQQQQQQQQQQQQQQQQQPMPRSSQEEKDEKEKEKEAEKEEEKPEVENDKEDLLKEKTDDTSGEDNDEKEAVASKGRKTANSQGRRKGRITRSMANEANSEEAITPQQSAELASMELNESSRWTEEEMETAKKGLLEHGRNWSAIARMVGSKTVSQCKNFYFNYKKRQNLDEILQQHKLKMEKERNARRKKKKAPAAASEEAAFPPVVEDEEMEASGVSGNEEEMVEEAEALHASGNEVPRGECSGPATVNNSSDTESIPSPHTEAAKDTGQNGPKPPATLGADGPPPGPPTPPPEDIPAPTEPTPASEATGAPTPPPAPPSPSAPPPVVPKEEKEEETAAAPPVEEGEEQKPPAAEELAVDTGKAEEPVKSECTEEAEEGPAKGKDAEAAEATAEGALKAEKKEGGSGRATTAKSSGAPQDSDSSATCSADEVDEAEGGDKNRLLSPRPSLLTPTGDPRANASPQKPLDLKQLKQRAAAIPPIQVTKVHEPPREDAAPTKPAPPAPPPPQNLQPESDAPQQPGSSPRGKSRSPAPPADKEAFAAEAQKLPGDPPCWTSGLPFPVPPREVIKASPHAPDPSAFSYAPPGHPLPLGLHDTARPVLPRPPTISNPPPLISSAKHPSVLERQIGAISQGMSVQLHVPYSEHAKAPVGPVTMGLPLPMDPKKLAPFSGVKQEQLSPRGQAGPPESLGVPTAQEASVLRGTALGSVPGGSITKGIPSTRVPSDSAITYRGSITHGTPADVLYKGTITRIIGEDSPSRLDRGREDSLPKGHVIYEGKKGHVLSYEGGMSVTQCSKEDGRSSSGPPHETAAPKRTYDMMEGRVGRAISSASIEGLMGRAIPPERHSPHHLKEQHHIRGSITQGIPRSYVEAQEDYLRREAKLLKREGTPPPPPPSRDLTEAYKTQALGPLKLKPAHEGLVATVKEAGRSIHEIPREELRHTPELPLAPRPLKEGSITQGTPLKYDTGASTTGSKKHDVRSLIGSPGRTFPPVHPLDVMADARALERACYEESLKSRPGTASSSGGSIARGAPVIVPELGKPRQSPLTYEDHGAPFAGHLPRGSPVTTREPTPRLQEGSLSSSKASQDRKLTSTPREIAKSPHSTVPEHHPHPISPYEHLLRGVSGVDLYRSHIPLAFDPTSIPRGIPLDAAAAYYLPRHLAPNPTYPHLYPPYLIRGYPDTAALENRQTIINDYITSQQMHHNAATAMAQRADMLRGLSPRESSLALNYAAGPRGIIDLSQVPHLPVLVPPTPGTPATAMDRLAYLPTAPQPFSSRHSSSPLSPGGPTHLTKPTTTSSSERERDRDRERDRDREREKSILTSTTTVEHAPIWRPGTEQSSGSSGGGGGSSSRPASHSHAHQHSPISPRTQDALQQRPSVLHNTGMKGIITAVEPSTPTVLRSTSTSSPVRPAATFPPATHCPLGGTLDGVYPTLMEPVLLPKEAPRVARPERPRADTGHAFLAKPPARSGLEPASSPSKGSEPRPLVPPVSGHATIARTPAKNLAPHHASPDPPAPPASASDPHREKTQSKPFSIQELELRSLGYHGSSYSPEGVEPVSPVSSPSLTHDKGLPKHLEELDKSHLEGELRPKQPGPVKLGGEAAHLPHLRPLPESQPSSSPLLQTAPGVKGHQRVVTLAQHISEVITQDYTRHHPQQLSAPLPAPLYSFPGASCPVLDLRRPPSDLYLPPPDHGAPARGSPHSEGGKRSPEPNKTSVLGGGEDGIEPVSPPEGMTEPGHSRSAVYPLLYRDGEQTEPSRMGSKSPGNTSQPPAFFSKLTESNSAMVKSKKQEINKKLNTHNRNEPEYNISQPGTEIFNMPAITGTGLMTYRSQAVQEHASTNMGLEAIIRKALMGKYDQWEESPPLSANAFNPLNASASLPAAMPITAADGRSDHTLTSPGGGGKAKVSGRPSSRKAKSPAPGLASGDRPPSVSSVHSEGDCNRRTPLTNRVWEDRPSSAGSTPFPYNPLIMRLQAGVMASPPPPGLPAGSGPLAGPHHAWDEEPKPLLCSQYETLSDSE
Chain of Lysosomal acid glucosylceramidase (P04062 whole entry): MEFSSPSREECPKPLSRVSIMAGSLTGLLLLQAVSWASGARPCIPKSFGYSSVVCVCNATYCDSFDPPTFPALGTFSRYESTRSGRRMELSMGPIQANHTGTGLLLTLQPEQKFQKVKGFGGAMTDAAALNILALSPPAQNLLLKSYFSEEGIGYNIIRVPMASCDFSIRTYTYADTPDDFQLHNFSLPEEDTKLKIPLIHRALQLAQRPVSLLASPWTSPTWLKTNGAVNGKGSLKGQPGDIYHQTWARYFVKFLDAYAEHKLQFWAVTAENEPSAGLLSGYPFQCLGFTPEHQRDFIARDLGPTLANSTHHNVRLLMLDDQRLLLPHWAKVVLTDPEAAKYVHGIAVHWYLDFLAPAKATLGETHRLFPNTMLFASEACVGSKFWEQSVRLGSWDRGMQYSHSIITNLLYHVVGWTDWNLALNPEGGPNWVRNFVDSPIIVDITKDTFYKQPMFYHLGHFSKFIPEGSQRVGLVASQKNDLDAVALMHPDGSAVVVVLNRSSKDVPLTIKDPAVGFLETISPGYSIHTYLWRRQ
Chain of Photoreceptor-specific nuclear receptor (Q9Y5X4 whole entry): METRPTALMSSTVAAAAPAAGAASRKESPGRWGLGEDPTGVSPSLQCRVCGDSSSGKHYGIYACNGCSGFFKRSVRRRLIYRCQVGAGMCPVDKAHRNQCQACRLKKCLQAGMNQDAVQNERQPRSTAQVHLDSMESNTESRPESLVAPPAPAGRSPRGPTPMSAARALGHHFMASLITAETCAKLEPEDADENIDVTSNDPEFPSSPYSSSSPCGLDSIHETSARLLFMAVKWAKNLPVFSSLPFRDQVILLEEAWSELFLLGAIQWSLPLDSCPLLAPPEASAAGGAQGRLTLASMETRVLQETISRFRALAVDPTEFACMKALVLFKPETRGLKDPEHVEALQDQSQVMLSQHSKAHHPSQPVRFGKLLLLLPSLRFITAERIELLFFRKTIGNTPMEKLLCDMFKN

IC50 [1]: 3.53 µM (active) | IC50 [2]: > 39.8 µM (not active)
SMILES: CCOc1ncccc1C(=O)Nc1ccc(C(=O)Nc2ccc(OC)cc2)cc1

EC50 [3]: > 50 µM (not active)
SMILES: COc1ccc(S(=O)(=O)NCC(=O)N(CC(=O)NCC2CCCO2)c2ccccc2C)cc1 (configuration not stated)

SMILES: O=C(Cc1ccc(Cl)cc1)Nc1cccc(S(=O)(=O)Nc2ccccc2F)c1
EC50 [4]: 15.7 µM (not active) | EC50 [5]: 15.7 µM (not active) | EC50 (HEK293): 10.2 µM (not active)

AC50 (Cytochrome P450 2C9): 39.8 µM (inconclusive)
SMILES: CC(C)C[C@@H](CC(=O)N[C@H](CC(=O)N[C@@H]1CCNC[C@H]1C(=O)N[C@H](CC(=O)N[C@@H](CCC(=O)O)CC(=O)O)CC(C)C)C(C)C)NC(=O)[C@@H]1CNCC[C@H]1N
